In patent publication US7988972B2, “Immunoreactive peptides from Epstein-Barr virus” (Ortho-Clinical Diagnostics, Inc., priority 1993, dated 2011):

Experiments:
[1] = system: anti-EA antibodies in human sera; test: Serological reactivity of different sera (VCA-EA-, VCA+EA+, VCA+EA-) with p50.10; type: binding
Experimental: Serological reactivity of different sera (VCA−EA−, VCA+EA+, VCA+EA−) with the p50.10 synthetic peptide was performed as described in Example 1, according to Pothen, et al., supra.

[2] = system: CD4+ T-cell subpopulation; test: Proliferation assay with CD4+-enriched T-cell subpopulation; type: cell-based, human
Experimental: PBL enriched for T-cell subpopulations were isolated by depleting a particular population by antibody/complement-mediated cytotoxicity. CD4^+ cells were prepared by lysing CD8^+ cells with anti-CD8 antibody and rabbit complement whereas the CD8^+ T cell subpopulation was enriched by lysing CD4^+ cells with an anti-CD4 antibody and rabbit complement.
PBL were resuspended in RPMI-1640 medium containing 2 mM L-glutamine, 25 mM HEPES, and 10 μg per ml gentamicin (HEPES media) at a concentration of 20×10^6 cells per ml. T cell specific MAb, OKT4 or OKT8 (Ortho Diagnostics Inc.), was added to the cells at the optimal concentration (previously determined by titration to give maximal lysis) and incubated on ice for 30 minutes. The cells were then washed with fresh HEPES media and resuspended at 10×10^6 cells per ml in baby rabbit complement (Pel-Freez Clinical Systems) diluted with the HEPES media to the appropriate concentration (previously assayed to give maximal antibody-specific cytotoxicity). The cells were incubated for 45 minutes in a 37° C. water bath with gentle mixing every 15 minutes. After incubation, the cells were washed thoroughly with the HEPES media and an aliquot (1-2×10^6) of cells was removed and stained for flow cytometric analysis which was performed as described below. […]

[3] = system: anti-EA antibodies in human sera; test: ELISA, serological reactivity of human sera with p17 synthetic peptides; type: binding; conditions: for No. Positive/No. Tested / No. Positive/No. Tested (%): sera 1:10
Experimental: ELISA. The ELISA for measuring specific antibodies to p17, p50 or to the synthetic peptides was performed as previously described in detail (Luka et al., J. Immunol. Methods, 67:145-156, 1984). Aliquots of different antigen concentrations were diluted in 0.5M Na2CO3 buffer, pH 9.5, added to wells in polystyrene microtiter plates (Linbro) and the plates incubated overnight at 4° C. Following this incubation period, the plates were washed 5× with Tris-HCl, pH 7.4, containing 0.05% Tween 20, 50 mM NaCl and 100 mg per liter albumin (Sigma) and dried for 20 minutes at room temperature. The plates were screened with different anti-EA-R or EA-D antibody positive human sera and the monoclonal antibody to p17 or p50 to identify the optimal concentration of antigen to be used in the serological studies. Alkaline-phosphatase-labelled goat anti-human IgG (Sigma) or goat anti-mouse IgG (Sigma) was used as the indicator system.
For the testing of human sera for antibodies to native p17, p50 or to the synthetic peptides, sera were diluted 1:10 in ELISA buffer, added in 0.1 ml volumes to wells coated with optimal concentrations of antigen and the plates were incubated for 60 minutes at room temperature. After 4 washes with ELISA buffer, 100 μl of alkaline phosphatase-labelled goat anti-human IgG in ELISA buffer were added to each well and the plates were incubated at room temperature for 1 hour. Following four more washes in buffer, the enzyme reaction was performed by dissolving 1 mg per ml of Sigma alkaline phosphatase substrate in 1M diethanolamine buffer, pH 10.4, containing 1 mM MgCl2 and 0.1 mM ZnCl2, and 100 μl of the mixture was then added to each well. The reaction was allowed to proceed for 30 minutes at 37° C. and then the plates were screened directly with a microplate reader, TITERTEK MULTISKAN MC (Flow), at 420 nm. Readings above 0.1 which was 2× the background noted with antibody-negative sera were considered positive reactions.
Studies were designed to determine the serological reactivity with the p17 synthetic epitopes. For this purpose, 87 anti-EA antibody-positive sera (titer>160) were tested in the ELISA against optimal pre-determined concentrations (2 μg per well) of the p17 synthetic peptides. The sera were obtained from 28 patients with African Burkift's lymphoma (ABL) collected during the Ghanian Burkitt Tumor Project, and from 28 North American patients with intermediate large cell, or high grade non-Hodgkin's lymphoma (NANHL). The donors included both HIV-positive and HIV-negative individuals. In addition, sera from 31 North American nasopharyngeal carcinoma (NANPC) patients were examined in this study (Pearson, G. R., et al., Cancer, 51:260-268, 1983). To validate the EA specificity of the serological reactions, the results with these sera were compared with results with 23 VCA and EA antibody-negative sera and 30 VCA-antibody-positive, EA-antibody negative sera. In contrast to the T-cell proliferation results, all three synthetic peptides reacted with the EA antibody-positive sera to varying degrees with p17.1 again being the dominant epitope. Approximately 60% of the anti-EA-positive sera reacted with p17.1, 48% with p17.2 and 23% with p17.3.
Seventy-one percent of the sera from ABL patients and 93% of the sera from patients with NANHL reacted with p17.1 as opposed to 23% of the sera from North American patients with NPC.

[4] = serum donors: Lymphoma (total), EA titers >160
[5] = serum donors: Nasopharyngeal carcinoma (North American), EA titers >160
[6] = serum donors: Non-Hodgkin's lymphoma (North American), EA titers >160
[7] = serum donors: Normal (VCA + EA-)

| Sequence | reactivity with anti-EA antibody negative sera [1] | S.I. ([2]; CD4+ subpopulation from donor A, different concentrations) | proliferation response ([2]; CD4+ subpopulation from donor B) | share of anti-EA-positive sera that reacted ([3]; 87 anti-EA antibody-positive sera (titer>160), 2 μg peptide per well) | No. Positive/No. Tested ([3]; serum donors: Burkitt's lymphoma (African), EA titers >160) | No. Positive/No. Tested [3, 4] | No. Positive/No. Tested (%) [3, 4] [%] | No. Positive/No. Tested [3, 5] | No. Positive/No. Tested (%) [3, 5] [%] | No. Positive/No. Tested [3, 6] | No. Positive/No. Tested (%) [3, 6] [%] | No. Positive/No. Tested [3, 7] | No. Positive/No. Tested (%) [3, 7] [%] | No. Positive/No. Tested ([3]; serum donors: Normal (VCA − EA-)) |
| --- | --- | --- | --- | --- | --- | --- | --- | --- | --- | --- | --- | --- | --- | --- |
| KQKHPKKVKQAFNPL [p50.10, synthetic peptide from 50 Kd early antigen (EA-D) region of EBV] | lack of reactivity |  |  |  |  |  |  |  |  |  |  |  |  |  |
| ETFTETWNRFITHTE [p17.1, synthetic peptide from 17 Kd early antigen (EA-R) region of EBV] |  | ≤ 5.3 | responded | Approximately 60% | 20/28 | 46/56 | 82 | 7/31 | 23 | 26/28 | 93 | 0/30 | 0 | 0/23 |
